Results as given in ChEMBL document CHEMBL1146731, “Design, synthesis, and structure-activity relationships of pyrazolo[3,4-d]pyrimidines: a novel class of potent enterovirus inhibitors” (Bioorg Med Chem Lett, 2004).
pIC50: −log10 of the molar value.

Assays:
Coxsackievirus [1] = assay: Inhibitory concentration to prevent formation of Coxsackievirus B3 (CVB3) plaques; assay type: functional, organism-based
Enterovirus [2] = assay: Inhibitory concentration to prevent formation of Enterovirus (EV 71) plaques; assay type: functional, organism-based
Rhabdomyosarcoma cell = assay: Cytotoxic effect of compound towards human Rhabdomyosarcoma cell line was evaluated; assay type: functional, cell-based
Coxsackievirus [3] = assay: Inhibitory concentration of compound against formation of Coxsackievirus A10 plaque in plaque reduction assay; assay type: functional, organism-based
Coxsackievirus [4] = assay: Inhibitory concentration of compound against formation of Coxsackievirus A24 plaque in plaque reduction assay; assay type: functional, organism-based
Coxsackievirus [5] = assay: Inhibitory concentration of compound against formation of Coxsackievirus A9 plaque in plaque reduction assay; assay type: functional, organism-based
Coxsackievirus [6] = assay: Inhibitory concentration of compound against formation of Coxsackievirus B2 plaque in plaque reduction assay; assay type: functional, organism-based
Coxsackievirus [7] = assay: Inhibitory concentration of compound against formation of Coxsackievirus B3 plaque in plaque reduction assay; assay type: functional, organism-based
Coxsackievirus [8] = assay: Inhibitory concentration of compound against formation of Coxsackievirus B4 plaque in plaque reduction assay; assay type: functional, organism-based
Coxsackievirus [9] = assay: Inhibitory concentration of compound against formation of Coxsackievirus B5 plaque in plaque reduction assay; assay type: functional, organism-based
Coxsackievirus [10] = assay: Inhibitory concentration of compound against formation of Coxsackievirus B6 plaque in plaque reduction assay; assay type: functional, organism-based
Echovirus [11] = assay: Inhibitory concentration of compound against formation of Echovirus 29 virus plaque in plaque reduction assay; assay type: functional, organism-based
Echovirus [12] = assay: Inhibitory concentration of compound against formation of Echovirus 9 virus plaque in plaque reduction assay; assay type: functional, organism-based
Enterovirus [13] = assay: Inhibitory concentration of compound against formation of Enterovirus 68 (EV 68) plaque in plaque reduction assay; assay type: functional, organism-based
Enterovirus [14] = assay: Inhibitory concentration of compound against formation of Enterovirus 71 (1743) genotype B plaque in plaque reduction assay; assay type: functional, organism-based
Enterovirus [15] = assay: Inhibitory concentration of compound against formation of Enterovirus 71 (2231) genotype C plaque in plaque reduction assay; assay type: functional, organism-based
Enterovirus [16] = assay: Inhibitory concentration of compound against formation of Enterovirus 71 (BrCr) genotype A plaque in plaque reduction assay; assay type: functional, organism-based
Influenza B virus = assay: Inhibitory concentration of compound against formation of Influenza A virus (HK) plaque in plaque reduction assay; assay type: functional, organism-based
Influenza A virus = assay: Inhibitory concentration of compound against formation of Influenza A virus (WSN) plaque in plaque reduction assay; assay type: functional, organism-based
Human rhinovirus sp. [17] = assay: Inhibitory concentration of compound against formation of Human rhinovirus 14 plaque in plaque reduction assay; assay type: functional, organism-based
Human rhinovirus sp. [18] = assay: Inhibitory concentration of compound against formation of Human rhinovirus 2 plaque in plaque reduction assay; assay type: functional, organism-based
Coxsackievirus [19] = assay: Inhibitory concentration of compound against formation of Coxsackievirus B1 plaque in plaque reduction assay; assay type: functional, organism-based
Coxsackievirus [20] = assay: Inhibitory concentration of compound against formation of Coxsackievirus A16 plaque in plaque reduction assay; assay type: functional, organism-based
Human alphaherpesvirus 1 = assay: Inhibitory concentration of compound against formation of Herpes simplex virus 1 plaque in plaque reduction assay

CCCn1ncc2c(N3CCN(C(c4ccccc4)c4ccccc4)CC3)ncnc21
pIC50 (Coxsackievirus [1]): < 4.60 | pIC50 (Enterovirus [2]): < 4.60 | pIC50 (Rhabdomyosarcoma cell): < 4.60

c1ccc(C(c2ccccc2)N2CCN(c3ncnc4c3cnn4-c3ccccc3)CC2)cc1
pIC50 (Coxsackievirus [3]): 6.41 | pIC50 (Coxsackievirus [4]): 7.30 | pIC50 (Coxsackievirus [5]): 6.59 | pIC50 (Coxsackievirus [6]): 7.10 | pIC50 (Coxsackievirus [1]): 6.82 | pIC50 (Coxsackievirus [7]): 6.82 | pIC50 (Coxsackievirus [8]): 6.80 | pIC50 (Coxsackievirus [9]): 6.36 | pIC50 (Coxsackievirus [10]): 6.03 | pIC50 (Echovirus [11]): < 4.60 | pIC50 (Echovirus [12]): 6.52 | pIC50 (Enterovirus [2]): 6.39 | pIC50 (Enterovirus [13]): 6.74 | pIC50 (Enterovirus [14]): 6.33 | pIC50 (Enterovirus [15]): 6.28 | pIC50 (Enterovirus [16]): 6.46 | pIC50 (Influenza B virus): < 4.60 | pIC50 (Influenza A virus): < 4.60 | pIC50 (Human rhinovirus sp. [17]): < 4.60 | pIC50 (Human rhinovirus sp. [18]): < 4.60 | pIC50 (Rhabdomyosarcoma cell): < 4.60 | pIC50 (Coxsackievirus [19]; Coxsackievirus): 6.16 | pIC50 (Coxsackievirus [20]): 6.64 | pIC50 (Human alphaherpesvirus 1): < 4.60

Cc1ccsc1C(c1c(C)noc1C)N1CCN(c2ncnc3c2cnn3-c2ccccc2)CC1 (stereo unspecified)
pIC50 (Coxsackievirus [1]): 7.09 | pIC50 (Enterovirus [2]): 6.19 | pIC50 (Rhabdomyosarcoma cell): < 4.60

Brc1ccc(C(c2ccccc2)N2CCN(c3ncnc4c3cnn4-c3ccccc3)CC2)cc1 (stereo unspecified)
pIC50 (Coxsackievirus [1]): 6.31 | pIC50 (Enterovirus [2]): 6.04 | pIC50 (Rhabdomyosarcoma cell): < 4.60

Cc1noc(C)c1C(c1ccccc1)N1CCN(c2ncnc3c2cnn3-c2ccccc2)CC1 (stereo unspecified)
pIC50 (Coxsackievirus [1]): 7.02 | pIC50 (Enterovirus [2]): 6.24 | pIC50 (Rhabdomyosarcoma cell): < 4.60

c1ccc(C(c2ccccc2)N2CCN(c3[nH]cnc4nncc3-4)CC2)cc1
pIC50 (Coxsackievirus [1]): < 4.60 | pIC50 (Enterovirus [2]): < 4.60 | pIC50 (Rhabdomyosarcoma cell): < 4.60

N#Cc1cccc(C(c2ccccc2)N2CCN(c3ncnc4c3cnn4-c3ccccc3)CC2)c1 (stereo unspecified)
pIC50 (Coxsackievirus [1]): 6.96 | pIC50 (Enterovirus [2]): 6.11 | pIC50 (Rhabdomyosarcoma cell): < 4.60

Cc1ccsc1C(c1ccccc1Br)N1CCN(c2ncnc3c2cnn3-c2ccccc2)CC1 (stereo unspecified)
pIC50 (Coxsackievirus [1]): 7.14 | pIC50 (Enterovirus [2]): 6.49 | pIC50 (Rhabdomyosarcoma cell): < 4.60

c1ccc(Cn2ncc3c(N4CCN(C(c5ccccc5)c5ccccc5)CC4)ncnc32)cc1
pIC50 (Coxsackievirus [1]): < 4.60 | pIC50 (Enterovirus [2]): < 4.60 | pIC50 (Rhabdomyosarcoma cell): < 4.60

N#Cc1ccc(C(c2ccccc2)N2CCN(c3ncnc4c3cnn4-c3ccccc3)CC2)cc1 (stereo unspecified)
pIC50 (Coxsackievirus [1]): 6.74 | pIC50 (Enterovirus [2]): 6.03 | pIC50 (Rhabdomyosarcoma cell): < 4.60

Cc1ccccc1C(c1sccc1C)N1CCN(c2ncnc3c2cnn3-c2ccccc2)CC1 (stereo unspecified)
pIC50 (Coxsackievirus [1]): 7.08 | pIC50 (Enterovirus [2]): 6.39 | pIC50 (Rhabdomyosarcoma cell): < 4.60

c1ccc(C(c2ccccn2)N2CCN(c3ncnc4c3cnn4-c3ccccc3)CC2)cc1 (stereo unspecified)
pIC50 (Coxsackievirus [1]): 6.77 | pIC50 (Enterovirus [2]): 6.43 | pIC50 (Rhabdomyosarcoma cell): < 4.60

FC(F)(F)c1ccc(C(c2ccccc2)N2CCN(c3ncnc4c3cnn4-c3ccccc3)CC2)cc1 (stereo unspecified)
pIC50 (Coxsackievirus [1]): 6.52 | pIC50 (Enterovirus [2]): 5.78 | pIC50 (Rhabdomyosarcoma cell): < 4.60

Cc1ccsc1C(c1ccccn1)N1CCN(c2ncnc3c2cnn3-c2ccccc2)CC1 (stereo unspecified)
pIC50 (Coxsackievirus [1]): 7.20 | pIC50 (Enterovirus [2]): 6.44 | pIC50 (Rhabdomyosarcoma cell): < 4.60

Cc1ccsc1C(c1ccccc1)N1CCN(c2ncnc3c2cnn3-c2ccccc2)CC1 (stereo unspecified)
pIC50 (Coxsackievirus [1]): 7.05 | pIC50 (Enterovirus [2]): 6.34 | pIC50 (Rhabdomyosarcoma cell): < 4.60

O=C1N(CCCCCCOc2ccc(Br)cc2)CCN1c1ccncc1
pIC50 (Coxsackievirus [7]): < 4.60 | pIC50 (Coxsackievirus [8]): < 4.60 | pIC50 (Coxsackievirus [9]): < 4.60 | pIC50 (Coxsackievirus [10]): < 4.60 | pIC50 (Echovirus [11]): < 4.60 | pIC50 (Echovirus [12]): 5.55 | pIC50 (Influenza B virus): < 4.60 | pIC50 (Influenza A virus): < 4.60 | pIC50 (Human rhinovirus sp. [17]): 4.94 | pIC50 (Human rhinovirus sp. [18]): < 4.60 | pIC50 (Coxsackievirus [19]): < 4.60 | pIC50 (Coxsackievirus [20]): < 4.60 | pIC50 (Human alphaherpesvirus 1): < 4.60

CCn1ncc2c(N3CCN(C(c4ccccc4)c4ccccc4)CC3)ncnc21
pIC50 (Coxsackievirus [1]): < 4.60 | pIC50 (Enterovirus [2]): < 4.60 | pIC50 (Rhabdomyosarcoma cell): < 4.60

Cn1ncc2c(N3CCN(C(c4ccccc4)c4ccccc4)CC3)ncnc21
pIC50 (Coxsackievirus [1]): < 4.60 | pIC50 (Enterovirus [2]): < 4.60 | pIC50 (Rhabdomyosarcoma cell): < 4.60

c1ccc(C(c2cccnc2)N2CCN(c3ncnc4c3cnn4-c3ccccc3)CC2)cc1 (stereo unspecified)
pIC50 (Coxsackievirus [1]): 6.28 | pIC50 (Enterovirus [2]): 5.34 | pIC50 (Rhabdomyosarcoma cell): < 4.60

Clc1ccc(C(c2ccccc2)N2CCN(c3ncnc4c3cnn4-c3ccccc3)CC2)cc1 (stereo unspecified)
pIC50 (Coxsackievirus [1]): 6.59 | pIC50 (Enterovirus [2]): 5.71 | pIC50 (Rhabdomyosarcoma cell): < 4.60

c1ccc(-c2ccc(C(c3ccccc3)N3CCN(c4ncnc5c4cnn5-c4ccccc4)CC3)cc2)cc1 (stereo unspecified)
pIC50 (Coxsackievirus [1]): 6.51 | pIC50 (Enterovirus [2]): 5.72 | pIC50 (Rhabdomyosarcoma cell): < 4.60

Cc1ccccc1C(c1ccccc1)N1CCN(c2ncnc3c2cnn3-c2ccccc2)CC1 (stereo unspecified)
pIC50 (Coxsackievirus [1]): 6.51 | pIC50 (Enterovirus [2]): 5.70 | pIC50 (Rhabdomyosarcoma cell): < 4.60

c1ccc(C(c2ccncc2)N2CCN(c3ncnc4c3cnn4-c3ccccc3)CC2)cc1 (stereo unspecified)
pIC50 (Coxsackievirus [1]): 6.52 | pIC50 (Enterovirus [2]): 6.11 | pIC50 (Rhabdomyosarcoma cell): < 4.60

c1ccc(C(c2nccs2)N2CCN(c3ncnc4c3cnn4-c3ccccc3)CC2)cc1 (stereo unspecified)
pIC50 (Coxsackievirus [1]): 6.96 | pIC50 (Enterovirus [2]): 6.47 | pIC50 (Rhabdomyosarcoma cell): < 4.60

c1ccc(C(c2ccco2)N2CCN(c3ncnc4c3cnn4-c3ccccc3)CC2)cc1 (stereo unspecified)
pIC50 (Coxsackievirus [1]): 6.57 | pIC50 (Enterovirus [2]): 5.90 | pIC50 (Rhabdomyosarcoma cell): < 4.60
